Legend:
[1] = viscosity of solvents, rotational viscometer; assay type: physicochemical; conditions: 25° C.
[2] = in vivo; cited from earlier work
[3] = solubility of PLGA in the solvent, Matschke et al. 2002; cited from earlier work
[4] = system: mesothelial cells; conditions: human
Procedure: In addition to 10% fetal calf serum (PPA Laboratories, Austria) an epidermal growth factor (5 ng/ml, Sigma-Aldrich, Germany) and hydrocortisone (400 ng/ml, Sigma-Aldrich, Germany) were added to the medium. Furthermore, the cells were passaged at a confluence of about 80% and used for tests up to a passage of 20.
The cytotoxicity of the solvent was determined by an ATP-based assay (ATPlite, Perkin Elmer). […] After the incubation period, the medium was sucked off, the cells were washed once with PBS, 50 μl PBS per well was added, and the cell viability was determined according to the manufacturer's instructions. […] For each point in time, the concentration of the solvent was plotted against the measured cell viability (mean values±standard deviation from n=4 runs) and a non-linear standard function was adapted: […]
The LD50 values were taken from the estimated values of the plotted regression curve. It is the concentration at which a cell viability of still 50% could be measured.
In addition, the influence of the solvent on the metabolic cell viability was studied for a period of 11 hours. Metabolic cell viability is determined by the ATP value of the cells, which is a measure of viability. […]

[5] = system: rat; conditions: i.v., 40% DMI in isotonic saline solution (v/v); cited from earlier work
[6] = system: mouse; conditions: i.v., 20% solution; cited from earlier work

Row | Molecule | η (kinematic viscosity) [1] [mPas] | PLGA solubility [3] [%] | further results
1 | tetrahydrofurfuryl alcohol polyethyleneglycol [tetraglycol] | 16.6 | – | –
2 | Alteplase: recombinantly produced t-PA protein | – | – | half-life in plasma [2]: 3 to 6 min
3 | glycerol formal | 14.4 | 33 | tolerance (LD50) higher by a factor compared to tetraglycol [4]: 400
4 | CCOC(=O)[C@H](C)O [Ethyl l-lactate] | 2.74 | – | –
5 | CO[C@H]1CO[C@H]2[C@@H]1OC[C@H]2OC [DMI, Dimethyl isosorbide] | 8.16 | 41 | LD50 [5]: 5.4 g/kg body weight; LD50 [6]: 6.9 g/kg body weight
6 | CC(=O)OCC(COC(C)=O)OC(C)=O [Triacetin] | 18.75 | 35 | –
